# Assay results published in patent US20100003679A1, “ASSESSMENT OF CELLULAR COMPOSITION AND FRACTIONAL VIABILITY AND USES THEREOF” (University of Miami, priority 2006, published 2010).
# Tests used:
# Assay type in all cases: cell-based
# [1] = system: PDC (CA19-9+ ductal cells) of human islet preparations; assay: Simultaneous β-cell/PDC viability by FACS after noxious stimuli: ductal cell subset; conditions: 24 h, SNAP 0.5 mM, H2O2 200 μM, IL-1β 50 U/ml + TNF-α 1,000 U/ml + IFN-γ 1,000 U/ml, vs absence of stimulus
# Experimental: (§1) Assessment of PDC-specific viability: Single cell suspensions were incubated for 30 min at 37° C. in phosphate buffered saline (PBS) without Ca^2+ and Mg^2+ with Newport Green PDX acetoxymethylether (NG; […]) and tetramethylrhodamineethylester (TMRE; 100 ng/ml; both from Molecular Probes). Cells were incubated with anti-CA19-9 antibody (1:100) for 15 min followed by goat anti-mouse antibody (Alexa-647). After washing, cells were stained with 7-aminoactinomycin D (7-AAD; Molecular Probes), a marker of cell death. Cell suspensions were analyzed (minimum 3.0 104 events) using a FACScan cytometer with the CellQuest-pro software (Becton Dickinson, Mountain View, Calif.). We have evaluated apoptosis selectively in the NG^bright and CA19-9+ cells according to the scheme in FIGS. 19A-E. After counting, dead cells (7-AAD+) were excluded from further analysis, live β-cells (NG^bright) and PDC (CA19-9^+) were analyzed for mitochondrial membrane potential (TMRE), which allows discriminating between healthy (TMRE^+) and apoptotic (TMRE^−) cells. […]
# [2] = system: β-cells (NG bright) of human islets; assay: Simultaneous β-cell/PDC viability by FACS after noxious stimuli: β-cell subset; conditions: human islet cells, 24 h; SNAP 0.5 mM; H2O2 200 μM; IL-1β 50 U/ml + TNF-α 1,000 U/ml + IFN-γ 1,000 U/ml; vs absence of stimulus
# Experimental: as §1
# [3] = system: β-cells (NG bright) of human islets; assay: β-cell apoptosis after delivery of noxious stimuli (TMRE staining in NG bright subset, FACS); conditions: SNP 0.5 mM 18 h, H2O2 200 μM 18 h, IL-1β 50 U/ml alone or with TNF-α 1000 U/ml and IFN-γ 1000 U/ml 24 h, vs absence of stimulus
# Experimental: Determination of fractional β-cell viability. For assessment of apoptosis, single cell suspensions were incubated with 1 μM Newport Green PDX acetoxymethylether (NG; Molecular Probes) and 100 ng/ml of tetramethylrhodamine ethyl ester (TMRE; Molecular Probes) for 30 min at 37° C. in PBS without Ca^2+ and Mg^2+. Newport Green allows for the definition of cell subsets according to zinc content (18). TMRE selectively binds to mitochondrial membranes, allowing for detection of apoptosis (that results in decreased staining) (19-20). After washing, cells were stained with 7-aminoactinomycin D (7-AAD; Molecular Probes), which binds to DNA when cell membrane permeability is altered after cell death. Cell suspensions were analyzed (minimum 3.0×10^4 events) using a FACScan cytometer (Becton Dickinson, Mountain View, Calif.) with the CellQuest software.
# Delivery of pro-apoptotic stimuli to islet cells: Islets were treated with selected compounds to induce apoptosis. The nitric oxide (NO) donor sodium nitroprusside (Baxter Healthcare Corporation, Deerfield, Ill.) was used at 0.5 mM for 18 hours. Hydrogen peroxide (H2O2; Sigma) was used at 200 μM for 18 hours. IL-1-β (50 U/ml) alone or in combination with TNF-α (1000 U/ml) and IFN-γ (1000 U/ml) was used for 24 hours. […]
Compound,apoptosis by TMRE staining in ductal cell (PDC) subset [1],apoptosis by TMRE staining in β-cell subset [2],"percentage of apoptotic β-cells (TMRE−, NG bright) [3]"
"OO [H2O2, Hydrogen peroxide]",increased apoptosis,increased apoptosis,increase in the percentage of apoptotic β-cells
IL-1β: cytokine used as pro-apoptotic stimulus on islets,–,–,increase in the percentage of apoptotic β-cells
"CC(=O)NC(C(=O)O)C(C)(C)SN=O (racemic) [SNAP, S-Nitroso-N-acetyl-DL-penicillamine]",increased apoptosis,increased apoptosis,–
